# Laboratory results reported in patent US9603859B2, “Methods and products for increasing the rate of healing of tissue wounds” (BRIGHAM YOUNG UNIVERSITY, priority 2011, dated 2017).
# What was measured:
# primary human MSC cells = assay: Wound healing array q-PCR gene expression in mesenchymal stem cells; format: cell-based; settings: 8 hours treatment
# Excerpt: To determine the role of synthetic Ceragenins CSA-13, 44 and 90 in wound healing using mesenchymal stem cells (MSC), targeted mRNA panels from SABiosciences, and primary cells from Lonza were selected. Cells were purchased from Lonza.com and used fresh for each test using recommended media and culture conditions. After treatment, mRNA was isolated using Qiagen RNeasy Mini Kit®, and quantified using a NanoDrop 2000® by UV at 260 nm and 260/280 ratio for purity. cDNA was made using a First Strand Kit® from SABiosciences and processed for real time PCR using a kit from the same company for selected analysis of wound healing pathways. Results from q-PCR were uploaded to the SABiosciences site and to Ingenuity.com web site for analysis and pathway mapping. SABiosciences wound healing array plates (Cat# PAHS-121) and innate/acquired immune response plates (PAHS-052) were used. These arrays are fully validated when used as recommended. On day 1, primary human MSC cells were plated at 200,000 cells/well using 6-well plates with 3 ml of recommended media—hMSC Basal Medium+BulletKit (50 ml Growth Supplement, 10 ml L-Glutamine and 0.5 ml Gentamicin Sulfate Amphotercin-B) for 24 hours. Only early passages of cells were used, and never from frozen stock. On day 2, cells were treated with compounds dissolved in DMSO diluted 1:1000 or more to avoid effects of the solvent. Final testing concentration for CSA-13 was 5.0 μM. Treatment lasted 8 hours, and was followed by RNA isolation using QIAGEN RNeasy Mini Kit® (74104). RNA was measured at 260/280 nm using a NanoDrop 2000® and normalized to 2.4 ng per well, cDNA preparation was done using QIAGEN First Strand kit 330401. q-PCR was run as absolute quantification and threshold set at 0.1 units. Dendritic cells were plated at 500,000 cells/well using 24-well plate with 500 ul of Lonza LGM-3 Complete Growth Medium with and without compound. Treatment lasted 8 hours, and was followed by RNA isolation using QIAGEN RNeasy Mini Kit® (74104). RNA was measured at 260/280 nm using NanoDrop2000® and normalized to 2.4 ng per well, cDNA preparation was done using QIAGEN First Strand kit 330401. PCR was run as absolute quantification and threshold set at 0.1 units. For the wound healing array, strong upregulation of growth factors such as HB-EGF and cell migration factors such as MMP1 and CXCL2 were found, indicating a clear potential for CSA as a modulator of wound healing. Additional gene expression data is provided in Tables 1-3 for CSA-13, 44, and 90, respectively.
# [1] = test system: Mixed-species biofilms of S. aureus and P. aeruginosa; assay: Mixed-species biofilm susceptibility, live/dead staining; format: cell-based; settings: biofilms grown in collagen-coated plates for 24 hours
# HaCaT migration = HaCaT migration by ECIS (2D wound healing); format: cell-based, human
# Experimental: Standard microdilution methods were used to determine minimum inhibitory concentration (MIC) and minimum bactericidal concentration (MBC) of test agents (peptides and peptide-mimics) against drug resistant Staphylococcus. aureus (TCH1516) and Pseudomonas. aeruginosa (PAO1). […] Cytotoxicity of test agents to human immortalized keratinocytes (HaCaTs) was assessed using 3-[4,5-dimethylthiazol-2-yl]-2,5-diphenyl tetrazolium bromide (MTT). Promotion of HaCaT migration by test agents was tested using electric cell-substrate impedance sensing (ECIS®), which induced 2D wound healing. The ability of test agents to stimulate angiogenesis was evaluated using matrigel-induced tube formation of human vein endothelial cells (HUVECs).
compound,measurement,setting,value
CCCCCN(CCCCC)CCC[C@@H](C)[C@H]1CC[C@H]2[C@@H]3[C@H](OCCCN)C[C@@H]4C[C@H](OCCCN)CC[C@]4(C)[C@H]3C[C@H](OCCCN)[C@]12C [CSA-90],Fold Regulation ACTA2,primary human MSC cells,−2.5014
same,Fold Regulation ACTB,primary human MSC cells,−2.0745
same,Fold Regulation CCL2,primary human MSC cells,−1.5793
same,Fold Regulation COL4A3,primary human MSC cells,−1.6195
same,Fold Regulation CTGF,primary human MSC cells,−15.7171
same,Fold Regulation CTSK,primary human MSC cells,1.5366
same,Fold Regulation CTSL2,primary human MSC cells,1.6306
same,Fold Regulation EGFR,primary human MSC cells,1.6212
same,Fold Regulation FGF7,primary human MSC cells,5.1689
same,Fold Regulation HGF,primary human MSC cells,2.3334
same,Fold Regulation IFNG,primary human MSC cells,1.839
same,Fold Regulation IGF1,primary human MSC cells,2.2724
same,Fold Regulation ITGA3,primary human MSC cells,−1.5127
same,Fold Regulation ITGB6,primary human MSC cells,1.9381
same,Fold Regulation MMP9,primary human MSC cells,2.5652
same,Fold Regulation SERPINE1,primary human MSC cells,−3.7307
same,Fold Regulation TGFBR3,primary human MSC cells,−1.5938
same,Fold Regulation TIMP1,primary human MSC cells,1.8212
same,Fold Regulation WISP1,primary human MSC cells,−2.3543
same,Fold Regulation ANGPT1,primary human MSC cells; CSA-13 at 5.0 μM,−1.915
same,Fold Regulation CCL7,primary human MSC cells; CSA-13 at 5.0 μM,2.2874
same,Fold Regulation CXCL1,primary human MSC cells; CSA-13 at 5.0 μM,3.1083
same,Fold Regulation CXCL2,primary human MSC cells; CSA-13 at 5.0 μM,36.5878
same,Fold Regulation F13A1,primary human MSC cells; CSA-13 at 5.0 μM,2.1032
same,Fold Regulation FGF10,primary human MSC cells; CSA-13 at 5.0 μM,1.9842
same,Fold Regulation HBEGF,primary human MSC cells; CSA-13 at 5.0 μM,3.5988
same,Fold Regulation IL2,primary human MSC cells; CSA-13 at 5.0 μM,1.8522
same,Fold Regulation IL6,primary human MSC cells; CSA-13 at 5.0 μM,7.2299
same,Fold Regulation IL10,primary human MSC cells; CSA-13 at 5.0 μM,−1.7382
same,Fold Regulation ITGA2,primary human MSC cells; CSA-13 at 5.0 μM,14.3637
same,Fold Regulation ITGB3,primary human MSC cells; CSA-13 at 5.0 μM,−1.538
same,Fold Regulation MMP1,primary human MSC cells; CSA-13 at 5.0 μM,45.3753
same,Fold Regulation PLAT,primary human MSC cells; CSA-13 at 5.0 μM,−2.14
same,Fold Regulation PLAUR,primary human MSC cells; CSA-13 at 5.0 μM,1.9924
same,Fold Regulation PTGS2,primary human MSC cells; CSA-13 at 5.0 μM,66.6189
same,Fold Regulation VEGFA,primary human MSC cells; CSA-13 at 5.0 μM,3.3257
Dermaseptin S1,anti-biofilm activity,[1],increased in anti-biofilm activity when shortened to the first 15 amino acids
"LL-37: a human peptide and positive control (LLGDFFRKSKEKIGKEFKRIVQRIKDFLRNLVPRTES; Antibacterial peptide LL-37; UniProt P49913 134-170, looked up)",induction of wound healing,HaCaT migration,induced wound healing
same,anti-biofilm activity,[1],showed anti-biofilm activity
